According to publication PMC12516379, “Rotamer-Controlled Self-Immolative Linkers Enable Tunable Release of Neurosteroid Oxime Prodrugs” (ACS Medicinal Chemistry Letters, 2025):

How the values were obtained:
[1] = Aqueous solubility by visual inspection in acetate buffer (pH 5); details: sodium acetate buffer
Experimental: For the solubility assessment, acetate buffer (pH 5) was selected as the media of choice to ensure prodrug stability during analysis.
High aqueous solubility was determined by visual inspection of 5 mg solid material in 0.5 mL
sodium acetate buffer solution. This media was selected to ensure stability of prodrugs during
dissolution in 50 mg/mL aqueous media.

[2] = Plasma stability assay via LC-MS/MS, rat plasma; type: in vitro ADME; details: read-out: t1/2 in rat plasma (Table S19) (converted)
Experimental: (§1) Building on our observation that rotamer control in the steric series can be modulated by enzymatic stabilization or activation, we next evaluated whether this effect was species dependent. To investigate this, we performed comparative stability studies by incubating select prodrugs (20a, 20b, 20l and 20t; Figure ) in mouse and rat plasma – two of the most commonly used preclinical species in drug development. This approach allowed us to assess the potential influence of species-specific enzymes on rotamer equilibria and, by extension, prodrug activation rates. The self-immolation profiles for the sterically tuned linker series (20a–b) reveal discernible, species-dependent differences prodrug stability. […] While the precise biochemical drivers remain unclear, this observation warrants further investigation beyond the scope of this work.
(§2) 1.2 Stability in Plasma and PBS via LCMS
(§3) Procaine (positive control) was purchased from Sigma-Aldrich. HPLC grade MeCN, MeOH, H2O, and FA were purchased from Fischer Scientific. Human plasma (cat. No. […]- […]
(§4) 0102242) were obtained from BIOIVT. DPBS 1X (no calcium, no magnesium, pH = 7.03) was purchased from Thermo Fischer Scientific. Stock solutions were prepared in 100% DMSO, and suitable dilutions of target analytes were prepared in 0.1% FA /MeCN for method development.
(§5) For PBS assay Gibco® Dulbecco’s phosphate-buffered saline (DPBS 1X, no calcium, no magnesium, pH = 7.03) was utilized. All experiments were performed in duplicate and results are presented as the average of two experimental replicates.
(§6) Procedure for Plasma Stability Assay
(§7) Test compounds and positive control (i.e. procaine) were dissolved in DMSO to make a 10 mM stock solution and subsequently diluted to 500 μM in 50% MeCN and PBS. This intermediate stock solution was prepared and added immediately prior to the start of each test compound experiment. Plasma was thawed at ambient temperature and aliquoted (663.0 μL) into 1.5 mL Eppendorf tubes. Plasma was incubated at 37 °C for 10 minutes in an incubator shaker at 150 rpm, and the reactions were initiated by addition of the test compound or positive control (4.0 µL, 3 μM). The spiked plasma samples were incubated at 37 °C. For designated time points, 75 µL aliquots were removed from the incubation mixture and immediately quenched in 150 µL of MeCN/0.1%FA with internal standard (ISTD, 2 µM d 5-7-ethoxy coumarin). […] The supernatant was transferred to an LC-MS vial and analyzed by LC/MS-MS. […]
(§8) LC–MS/MS analysis was performed using an Agilent 1260 Infinity II HPLC, coupled with an Agilent G6460 triple quadrupole mass spectrometer (Agilent Technologies, USA). All the data were acquired employing Agilent 6460 Quantitative Analysis data processing software. […]

[3] = Stability in acetate buffer pH 5.0 at room temperature via HPLC (UV); type: physicochemical
Experimental: (§9) Stability studies were conducted in PBS and acetate buffer utilizing high performance liquid chromatography for potential drug storage considerations. […]
(§10) All experiments were performed in duplicate and results are presented as the average of two experimental replicates.
(§11) 1.1 Aqueous Stability in PBS and Acetate Buffer via HPLC
(§12) Material and Instrumentation
(§13) HPLC grade acetonitrile (MeCN) […] HPLC grade water (H 2O), and formic acid (FA) were purchased from Fisher Scientific.
(§14) Puradisc 4 mm PTFE (0.45 μm) syringe filters from Cytiva. Gibco ® Dulbecco’s phosphate-buffered saline (DPBS 1X, no calcium, no magnesium, pH = 7.03) and acetate buffer (pH = 5.0, 10 mM) were purchased directly from Thermo Fisher Scientific and Cytiva, respectively.
(§15) Aqueous stability experiments were performed on an Agilent 1100 HPLC equipped with an Agilent G1315B diode array detector, an Agilent G1316A heated column compartment, and a Zorbax Eclipse XDB-C18 (4.6 x 150 mm, 5 μm) column.
(§16) Procedure for Aqueous Stability Experiments
(§17) Each sample was first weighed out in two separate 2.0 mL vials using an analytical balance.
(§18) Unless otherwise specified, the test compounds were then dissolved in the aqueous media (PBS or acetate buffer) at a standard concentration of 1 mg/mL. All mixtures were subsequently sonicated for approximately 30 sec. […]
(§19) min), precipitates observed in sample solutions were filtered with a PTFE syringe filter prior to analysis. Immediately after sample preparation, injection by the HPLC autosampler was performed, which was recorded as the initial time point (t = 0 min). Solutions were then kept in the autosampler at RT and reinjected at designated intervals without additional filtration or sample modification. Remaining prodrug was defined by the area under the curve (AUC) at 254 nm. Aqueous stability was ascertained by calculating the percentage of the parent compound remaining after each time point. Linear regression of the time (x-axis) vs. ln(%remaining) (y-axis) plot afforded the rate constant k (slope = -k). Pseudo first-order half-lives were then calculated by the following equation: t1/2 = 0.693/k.

[4] = Plasma stability assay at 37 °C via LC-MS/MS, human plasma; type: in vitro ADME; details: for half-life at 3 µM: human, plasma;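 for all read-outs here: prodrugs at 3 µM incubated in human plasma at 37 °C, intact prodrug quantified by LC-MS/MS over time, values are means of duplicate runs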
[5] = PBS stability assay at 37 °C via LC-MS/MS; type: physicochemical; details: for half-life at 3 µM: phosphate-buffered saline (DPBS), pH 7.03, PBS; for PBS, 37 °C %rem. at 2h (Table S23) / half-life at 3 µM: 37 °C
Experimental: To address this, prodrug stability was further evaluated in human plasma at 37 °C using liquid chromatography–tandem mass spectrometry (LC-MS/MS). For direct comparison, a parallel screen was conducted in PBS under identical conditions (Table ). To prevent premature degradation prior to LC-MS/MS analysis, acetonitrile containing formic acid was used as a quenching solution to acidify and stabilize the prodrugs in vials. […] This limitation in detection, along with the need for a more uniform and broadly applicable assessment across all compounds, prompted us to monitor the formation of the parent oxime as an alternative readout.
Stability experiments in human plasma and PBS were performed via liquid chromatography-tandem mass spectrometry (LC-MS/MS) to determine and compare rate of cleavage of progesterone prodrugs as well as selected allopregnanolone prodrugs (3 µM) when incubated at 37 °C. All experiments were performed in duplicate and results are presented as the average of two experimental replicates.

[6] = Plasma stability assay via LC-MS/MS, mouse plasma; type: in vitro ADME; details: read-out: t1/2 in mouse plasma (Table S20) (converted)
Experimental: as §1, §2, §3, §4, §5, §6, §7, §8

[7] = Stability in PBS at room temperature via HPLC (UV); type: physicochemical; details: phosphate-buffered saline (DPBS)
Experimental: as §9, §10, §11, §12, §13, §14, §15, §16, §17, §18, §19

[8] = Formation of progesterone oxime 3 from prodrugs in human plasma at 37 °C over 2 h; type: in vitro ADME; details: 2 h period
Experimental: Given the greater biological relevance of plasma, we focused on quantifying the formation of progesterone and allopregnanolone oxime in human plasma at 37 °C over a 2 h period. Results for selected progesterone prodrugs are presented in Figure A–C, illustrating the broad range of plasma cleavage rates as a function of promoiety design (see Figure S13 in Supporting Information for complete data set). Complete stability data for synthesized allopregnanolone prodrugs (Figures S18–S20) are provided in the Supporting Information. Given that their trends closely paralleled the progesterone series, they were not discussed in detail in the main text. […] This unexpected result prompted further investigation using computational modeling, described in the following section. […] Higher pK a values were associated with faster and more complete oxime formation, likely due to enhanced H-bonding which could stabilize the reactive syn-conformer. […] For the heterocyclic pyrrolidine and angle-strained series (Figure C), the release rates closely matched the experimentally determined prodrug half-lives (Table ), which were shorter in human plasma than in PBS. […] Although both 20s and 20t are capable of adopting the reactive syn-rotamer, their self-immolation reactivity diverged due to differences in linker geometry. The cyclopropane in 20s induces angle strain that hinders nucleophilic attack, rendering the compound stable under both PBS and plasma conditions. […] This intriguing result warrants further investigation, with follow-up studies currently in progress. Finally, the nucleophilic capacity of the amine tethers in prodrugs 20w–20z were evaluated based on their ability to cyclize in plasma, as detailed in the Supporting Information Figure S13.
as §2, §3, §4, §5, §6
Test compounds and positive control (i.e. procaine) were dissolved in DMSO to make a 10 mM stock solution and subsequently diluted to 500 μM in 50% MeCN and PBS. […] The supernatant was transferred to an LC-MS vial and analyzed by LC/MS-MS. […]

[9] = pH 5, aqueous buffer, thermodynamic from solid
[10] = pH 5, acetate buffer pH 5.0, RT, 1 mg/mL, HPLC 254 nm, read-out: t1/2 in acetate buffer at RT (Tables S5-S8) (converted)
[11] = pH 5, acetate buffer pH 5.0, rt, HPLC (UV), read-out: Half-life (t½) pH 5.0 rt (converted)
[12] = pH 5, acetate buffer pH 5.0, rt, read-out: t½: pH 5.0, rt (Table S23) (converted)
[13] = 3 µM, LC-MS/MS, read-out: t1/2 in human plasma at 37 °C (Tables S10-S13, S18) (converted)
[14] = LC-MS/MS, read-out: Half-life (t½) Plasma 37°C (converted)
[15] = read-out: Plasma, 37 °C t½ (Table S23) (converted)
[16] = 3 µM, LC-MS/MS, read-out: t1/2 in PBS at 37 °C (Tables S14-S17) (converted)
[17] = LC-MS/MS, read-out: Half-life (t½) PBS 37°C (converted)
[18] = read-out: PBS, 37 °C t½ (Table S23) (converted)
[19] = pH 7.03, DPBS pH 7.03, RT, 1 mg/mL, HPLC 254 nm, read-out: t1/2 in PBS buffer at RT (Tables S1-S4) (converted)
[20] = pH 7.03, PBS, rt, HPLC (UV), read-out: Half-life (t½) PBS rt (converted)
[21] = pH 7.03, PBS, rt, read-out: t½: PBS, rt (Table S23) (converted)

Row | Structure (SMILES) | solubility [1, 9] [µg/mL] | half-life at 3 µM [2] [min] | half-life at 1 mg/mL [3, 10] [h] | half-life at 1 mg/mL [3, 11] [h] | half-life at 1 mg/mL [3, 12] [h] | Plasma, 37 °C %rem. at 2h (Table S23) [4] | half-life at 3 µM [4, 13] [min] | half-life at 3 µM [4, 14] [min] | half-life at 3 µM [4, 15] [min] | PBS, 37 °C %rem. at 2h (Table S23) ([5]; PBS) [%] | half-life at 3 µM [5, 16] [min] | half-life at 3 µM [5, 17] [min] | half-life at 3 µM [5, 18] [min] | half-life at 3 µM [6] [min] | half-life at 1 mg/mL [7, 19] [min] | half-life at 1 mg/mL [7, 20] [min] | half-life at 1 mg/mL [7, 21] [min] | also measured
1 | C/C(=N\OC(=O)N(C)C[C@@H]1CCCN1)[C@H]1CC[C@H]2[C@@H]3CCC4=CC(=O)CC[C@]4(C)[C@H]3CC[C@]12C.O=C(O)C(F)(F)F [20l] | > 10000 | 24 | 175 | 175 | 175 | 1% | 18.6 | 18.6 | 18.6 | 8 | 44.4 | 44.4 | 44.4 | 24 | 114 ± 7.2 | 114 | 114 | –
2 | C/C(=N\OC(=O)N(C)C[C@@H]1CC(F)(F)CN1)[C@H]1CC[C@H]2[C@@H]3CCC4=CC(=O)CC[C@]4(C)[C@H]3CC[C@]12C [20r] | – | – | – | – | – | stable | – | – | > 1440 | 72 | 296 | 296 | 296 | – | – | – | – | solubility ([1]; pH 5): < 10000 µg/mL; t1/2 in human plasma at 37 °C (Tables S10-S13, S18) ([4]; 3 µM, LC-MS/MS): stable; Half-life (t½) Plasma 37°C ([4]; LC-MS/MS): stable; Prodrug stability / self-immolation in buffer, in words ([5]; PBS): highly stable, noncleaving prodrug; Formation/release of oxime 3 in human plasma, in words [8]: low levels of oxime
3 | CNC1(CN(C)C(=O)O/N=C(\C)[C@H]2CC[C@H]3[C@@H]4CCC5=CC(=O)CC[C@]5(C)[C@H]4CC[C@]23C)CCC1 [20t] | > 10000 | 27.6 | > 168 | > 168 | > 168 | 4% | 26.4 | 25.8 | 26.4 | 14 | 56.4 | 56.4 | 56.4 | 20.4 | 629 | 629 | 629 | –
